Where “and” joins values, the source holds several entries; their conditions need not be identical. Equal values may be shown once. Read-outs that look alike come from different tables or passages of the source. Marks after values point to notes of the source that are not given here.
Legend:
[1] = biological target: T1, CYP2B6 (Homo sapiens, UniProt P20813); conditions: 50 μM megestrol acetate, microsomes, CYP2B6 inhibitor
T1 sequence (P20813 1-491): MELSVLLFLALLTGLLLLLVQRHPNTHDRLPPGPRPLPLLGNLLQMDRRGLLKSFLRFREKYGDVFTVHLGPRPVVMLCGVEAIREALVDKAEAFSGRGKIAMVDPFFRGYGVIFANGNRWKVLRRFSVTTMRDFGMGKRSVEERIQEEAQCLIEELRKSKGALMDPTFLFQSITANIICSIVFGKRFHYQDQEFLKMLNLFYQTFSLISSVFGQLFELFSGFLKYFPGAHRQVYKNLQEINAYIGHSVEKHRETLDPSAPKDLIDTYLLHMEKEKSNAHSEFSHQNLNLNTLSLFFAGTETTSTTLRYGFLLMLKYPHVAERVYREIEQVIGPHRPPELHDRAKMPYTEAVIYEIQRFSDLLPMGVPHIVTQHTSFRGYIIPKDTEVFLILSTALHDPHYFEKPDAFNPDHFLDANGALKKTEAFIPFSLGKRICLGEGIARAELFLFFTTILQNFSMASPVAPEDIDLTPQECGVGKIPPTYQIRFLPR

[2] = test system: CYP2C8; format: in vitro ADME; conditions: 50 μM megestrol acetate, microsomes, quercetin
[3] = test system: CYP2C8
[4] = biological target: T2, CYP2D6 (Homo sapiens, UniProt P10635)
T2 sequence (P10635 whole entry): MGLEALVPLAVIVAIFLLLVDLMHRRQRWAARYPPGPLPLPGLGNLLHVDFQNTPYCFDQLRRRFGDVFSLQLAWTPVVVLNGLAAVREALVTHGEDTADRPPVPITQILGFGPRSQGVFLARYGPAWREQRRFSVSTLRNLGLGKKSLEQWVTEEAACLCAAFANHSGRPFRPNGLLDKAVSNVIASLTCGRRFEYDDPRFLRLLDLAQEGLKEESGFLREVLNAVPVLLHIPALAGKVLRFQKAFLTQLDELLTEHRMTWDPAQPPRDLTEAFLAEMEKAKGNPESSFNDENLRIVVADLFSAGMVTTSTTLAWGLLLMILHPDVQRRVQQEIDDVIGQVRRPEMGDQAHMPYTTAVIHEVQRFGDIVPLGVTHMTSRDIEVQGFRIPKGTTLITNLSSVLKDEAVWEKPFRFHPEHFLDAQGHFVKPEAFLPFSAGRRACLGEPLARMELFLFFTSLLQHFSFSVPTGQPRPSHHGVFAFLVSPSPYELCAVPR
Method: (§4) The stock solutions were added to incubation mixtures to obtain the final concentrations of 5 and 50 μM, each containing 1% acetonitrile.
(§5) After a 5 minute preincubation, nicotinamide adenine dinucleotide phosphate (NADPH) regenerating system (NRS; 1.7 mg/mL β-NADP, 7.8 mg/mL glucose-6-phosphate, and 6 units/mL glucose-6-phosphate dehydrogenase in 2% sodium bicarbonate solution) was added to initiate the reaction. The final incubation volume was 0.5 mL. Incubations were continued for 60 minutes.
(§6) All incubations were conducted at 37±1° C. in a shaking water bath. All incubations were carried out in triplicates.
(§7) After a 5-minute preincubation, 2% sodium bicarbonate solution was added to the incubation mixtures. The final incubation volume was 0.5 mL. Incubations were continued for 60 minutes.
(§8) Incubation reactions, including the matrix controls and metabolic negative controls, were terminated by adding 0.5 mL methanol.
(§9) The samples were analyzed on a Supelcosil LC-18 column (3μ, 120 Å, 3.0×100 mm).

[5] = biological target: T2, CYP2D6; format: in vitro ADME; conditions: 50 μM megestrol acetate, microsomes
[6] = biological target: CYP2C9 (Homo sapiens, UniProt P11712); format: in vitro ADME; conditions: 50 μM megestrol acetate, microsomes
Chain of CYP2C9 (P11712 whole entry): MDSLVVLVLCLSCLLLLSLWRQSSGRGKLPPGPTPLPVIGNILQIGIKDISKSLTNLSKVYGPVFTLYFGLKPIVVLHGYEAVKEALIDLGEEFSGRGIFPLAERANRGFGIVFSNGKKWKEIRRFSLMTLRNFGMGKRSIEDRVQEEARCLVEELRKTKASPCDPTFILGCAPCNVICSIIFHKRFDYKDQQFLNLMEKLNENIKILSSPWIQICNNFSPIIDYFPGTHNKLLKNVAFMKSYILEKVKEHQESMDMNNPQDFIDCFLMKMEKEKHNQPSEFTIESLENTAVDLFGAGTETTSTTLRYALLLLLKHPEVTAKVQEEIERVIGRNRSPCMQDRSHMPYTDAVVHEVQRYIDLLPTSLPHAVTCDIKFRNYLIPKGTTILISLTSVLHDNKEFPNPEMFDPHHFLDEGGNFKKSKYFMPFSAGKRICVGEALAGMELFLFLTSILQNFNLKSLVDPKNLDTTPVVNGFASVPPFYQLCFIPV

[7] = biological target: Human CYP3A4 + P450 Reductase + Cytochrome b5 SUPERSOMES (Homo sapiens, UniProt P08684)
Chain of Human CYP3A4 + P450 Reductase + Cytochrome b5 SUPERSOMES (P08684 whole entry, canonical isoform): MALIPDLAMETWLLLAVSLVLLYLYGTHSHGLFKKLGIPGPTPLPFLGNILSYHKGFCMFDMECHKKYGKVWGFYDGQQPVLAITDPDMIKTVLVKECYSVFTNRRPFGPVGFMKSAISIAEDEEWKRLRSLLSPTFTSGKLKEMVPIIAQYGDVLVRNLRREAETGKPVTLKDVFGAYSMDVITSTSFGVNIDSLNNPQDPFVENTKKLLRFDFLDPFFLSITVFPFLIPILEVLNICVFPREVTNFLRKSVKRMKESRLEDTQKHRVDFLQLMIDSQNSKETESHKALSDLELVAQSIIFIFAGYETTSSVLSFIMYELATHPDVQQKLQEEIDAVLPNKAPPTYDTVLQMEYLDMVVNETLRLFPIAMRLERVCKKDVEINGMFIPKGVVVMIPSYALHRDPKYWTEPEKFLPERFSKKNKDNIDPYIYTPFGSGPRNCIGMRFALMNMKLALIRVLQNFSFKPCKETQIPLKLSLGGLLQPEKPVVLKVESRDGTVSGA
Method: (§1) In this study, individual CYP isoforms expressed from human cDNA and P450 reductase cDNA were used (BD SUPERSOMES™ Enzymes, BD Biosciences Discovery Labware, Woburn, Mass.). SUPERSOMES™ are microsomes from baculovirus-infected insect cells containing singly expressed recombinant human CYP enzymes.
(§2) After a 5-minute preincubation, an appropriate amount of the appropriate buffer was added to the reaction mixtures to make the final volume of 0.5 mL. The incubations were continued for 60 minutes.
(§3) All incubation reactions were terminated by adding 0.5 mL methanol, and the samples were transferred to cryovials and stored at −70±10° C. until analysis.

[8] = biological target: Human CYP2C19 + P450 Reductase + Cytochrome b5 SUPERSOMES (Homo sapiens, UniProt P33261)
Chain of Human CYP2C19 + P450 Reductase + Cytochrome b5 SUPERSOMES (P33261 whole entry): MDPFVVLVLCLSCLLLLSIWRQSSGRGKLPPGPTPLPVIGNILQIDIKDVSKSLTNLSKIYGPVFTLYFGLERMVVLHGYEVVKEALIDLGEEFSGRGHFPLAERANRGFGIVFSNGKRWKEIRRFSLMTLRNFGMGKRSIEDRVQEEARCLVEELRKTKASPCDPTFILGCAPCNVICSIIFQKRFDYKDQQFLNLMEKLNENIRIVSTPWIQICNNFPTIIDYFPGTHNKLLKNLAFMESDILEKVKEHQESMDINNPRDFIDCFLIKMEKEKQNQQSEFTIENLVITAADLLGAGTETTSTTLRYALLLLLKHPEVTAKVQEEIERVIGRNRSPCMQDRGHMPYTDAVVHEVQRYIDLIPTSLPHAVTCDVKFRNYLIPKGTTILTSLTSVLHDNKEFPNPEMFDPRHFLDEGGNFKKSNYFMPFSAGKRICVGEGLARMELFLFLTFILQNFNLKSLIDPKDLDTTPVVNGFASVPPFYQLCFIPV
Method: as §1, §2, §3

[9] = biological target: CYP2E1 (Homo sapiens, UniProt P05181); format: in vitro ADME; design: purchased BD Biosciences Discovery Labware, Woburn, Mass; host or cells: baculovirus-infected insect cells; conditions: 50 μM megestrol acetate, 20 pmol CYP2E1
Chain of CYP2E1 (P05181 whole entry): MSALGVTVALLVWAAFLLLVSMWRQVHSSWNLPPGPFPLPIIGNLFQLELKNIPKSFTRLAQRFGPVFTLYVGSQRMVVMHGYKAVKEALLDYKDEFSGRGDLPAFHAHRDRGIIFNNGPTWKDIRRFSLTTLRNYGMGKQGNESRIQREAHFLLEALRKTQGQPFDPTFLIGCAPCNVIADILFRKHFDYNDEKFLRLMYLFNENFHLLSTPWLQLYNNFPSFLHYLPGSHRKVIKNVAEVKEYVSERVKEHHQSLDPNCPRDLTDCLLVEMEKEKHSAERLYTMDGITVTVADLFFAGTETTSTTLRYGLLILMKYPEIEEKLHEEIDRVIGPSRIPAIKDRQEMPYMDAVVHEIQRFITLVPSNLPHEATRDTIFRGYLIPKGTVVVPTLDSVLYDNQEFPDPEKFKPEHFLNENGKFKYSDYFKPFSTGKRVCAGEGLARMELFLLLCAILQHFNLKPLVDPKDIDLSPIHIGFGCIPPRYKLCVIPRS

[10] = biological target: CYP3A4 (Homo sapiens, UniProt P08684)
Chain of CYP3A4 (P08684 whole entry): as the sequence (P08684 whole entry, canonical isoform) above
Method: as §4, §5, §6, §7, §8, §9

[11] = biological target: T3, CYP2A6 (Homo sapiens, UniProt P11509); format: in vitro ADME; design: purchased BD Biosciences Discovery Labware, Woburn, Mass; host or cells: baculovirus-infected insect cells; conditions: 50 μM megestrol acetate, 20 pmol CYP2A6
T3 sequence (P11509 1-494): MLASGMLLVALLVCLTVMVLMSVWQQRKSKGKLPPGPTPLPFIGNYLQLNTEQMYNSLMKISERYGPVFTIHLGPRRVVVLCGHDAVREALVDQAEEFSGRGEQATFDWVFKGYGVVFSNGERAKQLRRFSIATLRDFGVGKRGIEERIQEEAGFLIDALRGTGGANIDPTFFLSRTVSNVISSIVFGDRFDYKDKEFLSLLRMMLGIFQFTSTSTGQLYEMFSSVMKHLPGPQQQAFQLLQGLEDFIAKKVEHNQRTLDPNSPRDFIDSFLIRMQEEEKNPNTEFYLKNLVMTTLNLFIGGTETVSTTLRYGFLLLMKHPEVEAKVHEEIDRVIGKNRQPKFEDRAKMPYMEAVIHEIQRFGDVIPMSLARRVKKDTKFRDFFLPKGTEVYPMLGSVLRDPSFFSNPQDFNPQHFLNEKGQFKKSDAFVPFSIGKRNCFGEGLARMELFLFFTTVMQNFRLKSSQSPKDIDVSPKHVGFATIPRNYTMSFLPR

[12] = human, microsomes, 60 min, pH 7.4
[13] = 5 μM, 5 pmol enzyme, listed as megestrol acetate
[14] = 5 μM, 20 pmol enzyme, listed as megestrol acetate
[15] = 50 μM, 5 pmol enzyme, listed as megestrol acetate
[16] = 50 μM, 20 pmol enzyme, listed as megestrol acetate

CC(=O)O[C@]1(C(C)=O)CC[C@H]2[C@@H]3C=C(C)C4=CC(=O)CC[C@]4(C)[C@H]3CC[C@@]21C [Megestrol Acetate, 17 α-acetyloxy-6-methylpregna-4,6-diene-3,20-dione]
difference in metabolism in the presence or absence of the inhibitor (LC/MS) [1]: no significant difference in metabolism | difference in metabolism in the presence or absence of the inhibitor (LC/MS) [2]: a significant difference in metabolism | percent metabolized in presence vs absence of inhibitor (unpaired two-tailed t-test) [3]: less than that of the percentage of megestrol acetate metabolized in the absence of the inhibitor | Percent of Parent Disappearance Individual ([3]; 50 μM (with 100 μM Quercetin)): 7.51% | metabolized in pooled human liver microsomes [3, 12]: > 20% | percent metabolized in presence vs absence of inhibitor (unpaired two-tailed t-test) [4]: not different from the percentage of megestrol acetate metabolized in the absence of the inhibitor | metabolized in pooled human liver microsomes [4, 12]: > 20% | difference in metabolism in the presence or absence of the inhibitor (LC/MS) [5]: no significant difference in metabolism | difference in metabolism in the presence or absence of the inhibitor (LC/MS) [6]: no significant difference in metabolism | Individual Raw Data Observed ([7]; 5 μM, 5 pmol enzyme): 0.8008 µM and 0.7908 µM and 0.8634 µM | Percent of Parent Disappearance Individual ([7]; 5 μM, 5 pmol enzyme): 58.1% and 58.6% and 54.8% | Percent of Parent Disappearance Mean ± SD ([7]; 5 μM, 5 pmol enzyme): 57.2 ± 02.06% | Percent of Parent Disappearance Mean ± SD [7, 13]: 57.2±2.06% | Individual Raw Data Observed ([7]; 5 μM, 20 pmol enzyme): 0.00000 ^a μM | Percent of Parent Disappearance Individual ([7]; 5 μM, 20 pmol enzyme): >93.6% | Percent of Parent Disappearance Mean ± SD ([7]; 5 μM, 20 pmol enzyme): >93.6 ± 0.000% | Percent of Parent Disappearance Mean ± SD [7, 14]: > 93.6±0.000% | Individual Raw Data Observed ([7]; 50 μM, 5 pmol enzyme): 14.3 µM and 14.66 µM and 14.98 µM | Percent of Parent Disappearance Individual ([7]; 50 μM, 5 pmol enzyme): 20.9% and 18.9% and 17.1% | Percent of Parent Disappearance Mean ± SD ([7]; 50 μM, 5 pmol enzyme): 18.9 ± 1.90% | Percent of Parent Disappearance Mean ± SD [7, 15]: 18.9±1.90% | Individual Raw Data Observed ([7]; 50 μM, 20 pmol enzyme): 5.336 µM and 5.631 µM and 6.813 µM | Percent of Parent Disappearance Individual ([7]; 50 μM, 20 pmol enzyme): 73.5% and 72.0% and 66.1% | Percent of Parent Disappearance Mean ± SD ([7]; 50 μM, 20 pmol enzyme): 70.5 ± 3.89% | Percent of Parent Disappearance Mean ± SD [7, 16]: 70.5±3.89% | Individual Raw Data Observed ([8]; 5 μM, 5 pmol enzyme): 2.139 µM and 2.028 µM and 1.969 µM | Percent of Parent Disappearance Individual ([8]; 5 μM, 5 pmol enzyme): −8.12% and −2.56% and 0.430% | Percent of Parent Disappearance Mean ± SD ([8]; 5 μM, 5 pmol enzyme): −3.42 ± 4.34% | Percent of Parent Disappearance Mean ± SD [8, 13]: 3.42±4.34% | Individual Raw Data Observed ([8]; 5 μM, 20 pmol enzyme): 2.14 µM and 2.225 µM and 2.128 µM | Percent of Parent Disappearance Individual ([8]; 5 μM, 20 pmol enzyme): 2.70% and −1.16% and 3.25% | Percent of Parent Disappearance Mean ± SD ([8]; 5 μM, 20 pmol enzyme): 1.60 ± 2.40% | Percent of Parent Disappearance Mean ± SD [8, 14]: 1.60±2.40% | Individual Raw Data Observed ([8]; 50 μM, 5 pmol enzyme): 21.34 µM and 20.03 µM and 19.86 µM | Percent of Parent Disappearance Individual ([8]; 50 μM, 5 pmol enzyme): −9.66% and −2.96% and −2.05% | Percent of Parent Disappearance Mean ± SD ([8]; 50 μM, 5 pmol enzyme): −4.89 ± 4.16% | Percent of Parent Disappearance Mean ± SD [8, 15]: 4.89±4.16% | Individual Raw Data Observed ([8]; 50 μM, 20 pmol enzyme): 15.71 µM and 16.25 µM and 16.51 µM | Percent of Parent Disappearance Individual ([8]; 50 μM, 20 pmol enzyme): −0.956% and −4.44% and −6.11% | Percent of Parent Disappearance Mean ± SD ([8]; 50 μM, 20 pmol enzyme): −3.84 ± 2.63% | Percent of Parent Disappearance Mean ± SD [8, 16]: 3.84±2.63% | metabolites formed [9]: no metabolites were detected | percent metabolized in presence vs absence of inhibitor (unpaired two-tailed t-test) [10]: less than that of the percentage of megestrol acetate metabolized in the absence of the inhibitor | metabolized in pooled human liver microsomes [10, 12]: > 20% | metabolites formed [11]: no metabolites were formed

Source: patent US8067042B1 (Mutual Pharmaceutical Company, Inc., priority 2007, dated 2011)
